Test results taken from patent US20260022097A1 (priority 2022, published 2026).
Where two headings read alike, the source gives them in different places.

Key:
[1] = biological target: kappa-opioid receptor (KOR) (Homo sapiens, UniProt P41145); assay: inhibition of forskolin-induced cAMP accumulation assay, KOR antagonist mode versus U50488H; type: cell-based; conditions: for IC50: read-out: KOR Antagonist IC50+/-SEM
MOR [2] = biological target: T1, MOR (Homo sapiens, UniProt P35372); assay: GTP assay (G-protein activation) at MOR; type: biochemical
T1 sequence (P35372 whole entry): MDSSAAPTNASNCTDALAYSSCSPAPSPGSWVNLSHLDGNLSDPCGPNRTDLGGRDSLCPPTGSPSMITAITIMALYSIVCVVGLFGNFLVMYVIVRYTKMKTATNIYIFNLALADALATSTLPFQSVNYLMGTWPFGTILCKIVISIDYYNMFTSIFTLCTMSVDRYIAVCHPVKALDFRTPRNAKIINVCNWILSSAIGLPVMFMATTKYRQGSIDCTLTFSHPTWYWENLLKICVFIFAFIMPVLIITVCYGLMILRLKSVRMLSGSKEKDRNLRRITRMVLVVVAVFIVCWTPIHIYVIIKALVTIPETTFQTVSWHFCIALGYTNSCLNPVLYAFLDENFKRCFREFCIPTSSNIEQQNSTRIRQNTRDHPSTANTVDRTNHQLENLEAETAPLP

mu-opioid receptor (MOR) = mu-opioid receptor (MOR) (Homo sapiens, UniProt P35372); assay: cell-based; type: cell-based; conditions: for EC50: read-out: MOR Agonist EC50+/-SEM; for Emax: read-out: MOR Agonist % Emax+/-SEM
Sequence of mu-opioid receptor (MOR) (P35372 whole entry): as above

[3] = biological target: T2, delta-opioid receptor (DOR) (Homo sapiens, UniProt P41143); assay: inhibition of forskolin-induced cAMP accumulation assay, DOR antagonist mode versus SNC80; type: cell-based; conditions: for IC50: read-out: DOR Antagonist IC50+/-SEM
T2 sequence (P41143 whole entry): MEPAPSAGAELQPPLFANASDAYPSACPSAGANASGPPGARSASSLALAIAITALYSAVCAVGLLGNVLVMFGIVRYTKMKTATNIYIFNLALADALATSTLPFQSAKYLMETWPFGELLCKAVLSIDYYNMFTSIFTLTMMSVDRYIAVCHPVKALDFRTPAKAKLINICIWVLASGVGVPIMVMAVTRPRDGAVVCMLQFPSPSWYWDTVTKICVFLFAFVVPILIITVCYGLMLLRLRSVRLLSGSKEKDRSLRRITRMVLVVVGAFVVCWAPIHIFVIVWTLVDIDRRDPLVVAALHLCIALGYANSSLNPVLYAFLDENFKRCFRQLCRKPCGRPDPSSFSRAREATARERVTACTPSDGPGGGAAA

squirrel monkeys [4] = assay: ventilatory ratio / respiratory effects in squirrel monkeys; type: in vivo
squirrel monkeys [5] = assay: antinociceptive effects in vivo in squirrel monkeys
MOR [6] = biological target: T1, MOR; assay: binding affinity at MOR
[7] = biological target: T2, delta-opioid receptor (DOR); assay: inhibition of forskolin-induced cAMP accumulation assay, DOR agonist mode; type: cell-based; conditions: for Emax: read-out: DOR Agonist % Emax+/-SEM (converted); for EC50: read-out: DOR Agonist EC50+/-SEM

Sequence of kappa-opioid receptor (KOR) (P41145 whole entry): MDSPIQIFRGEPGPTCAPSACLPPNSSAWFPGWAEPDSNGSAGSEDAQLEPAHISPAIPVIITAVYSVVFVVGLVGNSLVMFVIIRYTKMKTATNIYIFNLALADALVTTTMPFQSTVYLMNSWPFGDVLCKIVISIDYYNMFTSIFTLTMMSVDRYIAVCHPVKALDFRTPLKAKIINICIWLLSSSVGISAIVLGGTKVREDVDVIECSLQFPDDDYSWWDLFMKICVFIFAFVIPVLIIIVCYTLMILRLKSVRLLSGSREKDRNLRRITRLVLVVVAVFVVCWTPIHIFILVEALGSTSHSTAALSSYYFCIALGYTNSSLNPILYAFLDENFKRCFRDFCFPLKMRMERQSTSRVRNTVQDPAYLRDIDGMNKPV

Structure (SMILES) | KOR Antagonist % Imax+/-SEM ([1]; normalized to nor-BNI) [%] | IC50 ([1]; versus EC90 of U50488H) [nM] | EC50 (mu-opioid receptor (MOR)) [nM] | DOR Antagonist % Imax+/-SEM ([3]; normalized to naltrexone) [%] | IC50 ([3]; versus EC50 of SNC80) [nM] | Emax (mu-opioid receptor (MOR)) [%] | EC50 [7] [nM] | also measured
C=C[C@H]1[C@H]2CCC[C@]1(c1cccc(O)c1)CCN2CCc1ccccc1 [Compound 13, 3-((1R,5S,9R)-2-Phenethyl-9-vinyl-2-azabicyclo[3.3.1]nonan-5-yl) phenol] | 97.1 ± 9.2 | 74 ± 30.5 | 1.44 | 119.1 ± 15.5 | 113 ± 43.6 | – | – | Emax (MOR [2]): 20.1%; MOR Agonist % Emax+/-SEM (mu-opioid receptor (MOR)): 1.44 ± 0.48 (94.7 ± 3.1%); effect on ventilatory ratio (squirrel monkeys [4]): decreased ventilatory ratio; antinociceptive effects (squirrel monkeys [5]): had antinociceptive effects in vivo; Ki (MOR [6]): 0.5 nM
CC=C[C@H]1C2CCC[C@@]1(c1cccc(O)c1)CCN2CCc1ccccc1 (stereo in doubt) [Compound 26, 3-((1R,5R,9R)-2-Phenethyl-9-((E)-prop-1-en-1-yl)-2-azabicyclo[3.3.1]nonan-5-yl) phenol] | 126.7 ± 2.6 | 4.02 ± 0.25 | – | 142.5 ± 23.7 | 7.52 ± 2.93 | – | – | KOR antagonist (result in words) [1]: moderately potent KOR antagonist
C=C[C@H]1[C@@H]2CCC[C@@]1(c1cccc(O)c1)CCN2CCc1ccccc1 [Compound 19, 3-((1S,5R,9R)-2-Phenethyl-9-vinyl-2-azabicyclo[3.3.1]nonan-5-yl) phenol] | – | – | – | – | – | – | – | KOR Antagonist % Imax+/-SEM [1]: 28.39 ± 4.24 (104.9 ± 11.2%); KOR antagonist (result in words) [1]: weak DOR and KOR antagonist; IC50 [1]: 28.4 nM; DOR Antagonist % Imax+/-SEM [3]: 143.65 ± 41.03 (201.4 ± 35.9%); DOR antagonist (result in words) [3]: weak DOR and KOR antagonist; IC50 [3]: 144 nM
CC=C[C@H]1[C@H]2CCC[C@]1(c1cccc(O)c1)CCN2CCc1ccccc1 (stereo in doubt) [Compound 22, 3-((1R,5S,9R)-2-phenethyl-9-((E)-prop-1-en-1-yl)-2-azabicyclo[3.3.1]nonan-5-yl) phenol] | 111.6 ± 7.9 | 35 ± 9.72 | 2.61 | 143.3 ± 11.9 | 113 ± 19.8 | – | – | Emax (MOR [2]): 18%; MOR Agonist % Emax+/-SEM (mu-opioid receptor (MOR)): 2.61 ± 0.64 (89.5 ± 2.9%); effect on ventilatory ratio (squirrel monkeys [4]): slightly lessor effects on ventilatory ratio; respiratory effects compared with morphine (squirrel monkeys [4]): lessor respiratory effects; antinociceptive effects (squirrel monkeys [5]): had antinociceptive effects
CC=C[C@@H]1C2CCC[C@@]1(c1cccc(O)c1)CCN2CCc1ccccc1 (stereo in doubt) [Compound 27, 3-((1R,5R,9S)-2-Phenethyl-9-((E)-prop-1-en-1-yl)-2-azabicyclo[3.3.1]nonan-5-yl) phenol] | 111.8 ± 2.2 | 163 ± 37 | 4.66 | – | – | 57.5 | 60.5 ± 3.74 | Emax [7]: 66.7%
CCC=C[C@H]1[C@@H]2CCC[C@@]1(c1cccc(O)c1)CCN2CCc1ccccc1 (stereo in doubt) [Compound 34, 3-((1S,5R,9R)-9-((E)-but-1-en-1-yl)-2-phenethyl-2-azabicyclo[3.3.1]nonan-5-yl) phenol] | 98.2 ± 2.3 | 0.79 ± 0.28 | – | 211.5 ± 24.7 | 8.22 ± 2.44 | – | – | KOR antagonist (result in words) [1]: moderately potent KOR antagonist; DOR antagonist (result in words) [3]: potent DOR antagonist
C=C[C@@H]1[C@@H]2CCC[C@@]1(c1cccc(O)c1)CCN2CCc1ccccc1 [Compound 18, 3-((1S,5R,9S)-2-Phenethyl-9-vinyl-2-azabicyclo[3.3.1]nonan-5-yl) phenol] | 105.6 ± 4.6 | 128 ± 48.2 | 3.94 | – | – | 46.6 | 122 ± 47.1 | Emax [7]: 40.6%
CCC=C[C@H]1[C@H]2CCC[C@]1(c1cccc(O)c1)CCN2CCc1ccccc1 (stereo in doubt) [Compound 29, 3-((1R,5S,9R)-9-((E)-but-1-en-1-yl)-2-phenethyl-2-azabicyclo[3.3.1]nonan-5-yl) phenol] | 109.5 ± 8.3 | 328 ± 96.9 | 11.6 | 166.6 ± 40.0 | 69 ± 4.83 | 95.8 | – | –
CCC=C[C@@H]1[C@H]2CCC[C@]1(c1cccc(O)c1)CCN2CCc1ccccc1 (stereo in doubt) [Compound 30, 3-((1R,5S,9S)-9-((E)-but-1-en-1-yl)-2-phenethyl-2-azabicyclo[3.3.1]nonan-5-yl) phenol] | 103.8 ± 9.2 | 283 ± 46.4 | 14.8 | 182.3 ± 56.4 | 3220 ± 572 | 89.8 | – | –
CC=C[C@@H]1[C@H]2CCC[C@]1(c1cccc(O)c1)CCN2CCc1ccccc1 (stereo in doubt) [Compound 23, 3-((1R,5S,9S)-2-Phenethyl-9-((E)-prop-1-en-1-yl)-2-azabicyclo[3.3.1]nonan-5-yl) phenol] | 114.8 ± 11.2 | 238 ± 52.6 | 0.07 | 74.5 ± 2.3 | – | 101 | > 10000 | MOR potency relative to morphine (mu-opioid receptor (MOR)): 30 fold; IC50 [3]: 9.69 ± 2.23 nM
C=C[C@@H]1[C@H]2CCC[C@]1(c1cccc(O)c1)CCN2CCc1ccccc1 [Compound 14, 3-((1R,5S,9S)-2-Phenethyl-9-vinyl-2-azabicyclo[3.3.1]nonan-5-yl) phenol] | 101.8 ± 19.1 | 19.8 ± 9.71 | 2.12 | – | – | 67.3 | 57 ± 21.4 | Emax (MOR [2]): 10.5%; Emax [7]: 22.6%; effect on ventilatory ratio (squirrel monkeys [4]): without selective effects on ventilatory ratio; respiratory effects compared with morphine (squirrel monkeys [4]): lessor respiratory effects; antinociceptive effects (squirrel monkeys [5]): antinociceptive effects in some, but not all animals
CCC=C[C@@H]1[C@@H]2CCC[C@@]1(c1cccc(O)c1)CCN2CCc1ccccc1 (stereo in doubt) [Compound 33, 3-((1S,5R,9S)-9-((E)-but-1-en-1-yl)-2-phenethyl-2-azabicyclo[3.3.1]nonan-5-yl) phenol] | 96.2 ± 0.9 | 12.2 ± 2.49 | – | 226.1 ± 14.0 | 520 ± 144 | – | – | –
